One assay has as its target T1, Neutrophil elastase (Homo sapiens, UniProt P08246).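 Note: inhibition of neutrophil elastase enzyme activity, measured with a p-nitroanilide-linked peptide substrate; in other assays of this panel Not Active means under 50% inhibition at 10 µM.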
T1 sequence (P08246 whole entry): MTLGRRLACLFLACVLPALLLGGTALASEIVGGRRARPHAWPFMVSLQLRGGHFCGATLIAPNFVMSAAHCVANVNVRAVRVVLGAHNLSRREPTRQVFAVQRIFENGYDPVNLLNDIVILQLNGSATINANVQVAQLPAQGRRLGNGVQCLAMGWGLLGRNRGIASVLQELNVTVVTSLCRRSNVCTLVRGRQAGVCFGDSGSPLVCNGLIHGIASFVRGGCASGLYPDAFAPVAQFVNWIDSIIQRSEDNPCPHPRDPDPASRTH
The class given is tissue-based.

Assay [1] can be described thus: DRUGMATRIX: Atrial Natriuretic Factor (ANF) radioligand binding (ligand: [125I] ANF (rat)). The class given is cell membranes, Cavia porcellus, Dunkin-Hartley, Adrenal gland, Membrane. Particulars: Not Active = under 50% inhibition at 10 µM.
A short description of assay [2]: DRUGMATRIX: Sodium/nucleoside co-transporter radioligand binding (ligand: nitrobenzylthioinosine). In kind it is cell membranes, Cavia porcellus, Dunkin-Hartley, Cerebral cortex, Membrane. The settings on record: Not Active = under 50% inhibition at 10 µM.
The target of assay [3] is T2, Cholecystokinin receptor type A (Homo sapiens, UniProt P32238). Note: in other assays of this panel Not Active means under 50% inhibition at 10 µM.
T2 sequence (P32238 whole entry): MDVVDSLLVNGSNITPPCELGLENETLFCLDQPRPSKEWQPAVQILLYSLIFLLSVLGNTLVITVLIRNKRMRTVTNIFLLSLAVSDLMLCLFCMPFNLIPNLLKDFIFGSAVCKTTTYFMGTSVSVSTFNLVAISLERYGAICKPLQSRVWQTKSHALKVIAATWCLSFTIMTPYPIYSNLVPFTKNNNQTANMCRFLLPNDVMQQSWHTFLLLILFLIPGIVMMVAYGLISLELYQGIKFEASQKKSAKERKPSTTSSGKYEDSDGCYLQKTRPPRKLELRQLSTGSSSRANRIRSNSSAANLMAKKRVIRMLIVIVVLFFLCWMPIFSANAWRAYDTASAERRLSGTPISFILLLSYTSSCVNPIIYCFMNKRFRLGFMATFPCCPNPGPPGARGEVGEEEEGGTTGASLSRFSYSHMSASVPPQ
In kind it is cell membranes, Membrane. Particulars: 1321-n1.

The target in assay [4] is T3, Vasoactive intestinal polypeptide receptor 1 (Homo sapiens, UniProt P32241). Note: in other assays of this panel Not Active means under 50% inhibition at 10 µM.
T3 sequence (P32241 whole entry): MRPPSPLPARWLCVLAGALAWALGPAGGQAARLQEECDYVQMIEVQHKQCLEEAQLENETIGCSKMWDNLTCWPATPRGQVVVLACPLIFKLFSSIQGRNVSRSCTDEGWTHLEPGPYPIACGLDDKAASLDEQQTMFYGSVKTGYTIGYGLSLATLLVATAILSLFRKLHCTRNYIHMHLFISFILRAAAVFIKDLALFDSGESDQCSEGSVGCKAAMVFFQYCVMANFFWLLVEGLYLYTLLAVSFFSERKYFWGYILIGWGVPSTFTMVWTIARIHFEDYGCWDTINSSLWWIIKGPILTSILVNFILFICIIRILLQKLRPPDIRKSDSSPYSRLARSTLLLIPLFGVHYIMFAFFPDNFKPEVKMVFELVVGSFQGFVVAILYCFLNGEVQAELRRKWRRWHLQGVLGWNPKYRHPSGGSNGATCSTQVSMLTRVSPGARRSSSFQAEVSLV
The class given is cell membranes, Membrane. The settings on record: ht-29.

The next assay deals with T4, B2 bradykinin receptor (Homo sapiens, UniProt P30411).
T4 sequence (P30411 whole entry): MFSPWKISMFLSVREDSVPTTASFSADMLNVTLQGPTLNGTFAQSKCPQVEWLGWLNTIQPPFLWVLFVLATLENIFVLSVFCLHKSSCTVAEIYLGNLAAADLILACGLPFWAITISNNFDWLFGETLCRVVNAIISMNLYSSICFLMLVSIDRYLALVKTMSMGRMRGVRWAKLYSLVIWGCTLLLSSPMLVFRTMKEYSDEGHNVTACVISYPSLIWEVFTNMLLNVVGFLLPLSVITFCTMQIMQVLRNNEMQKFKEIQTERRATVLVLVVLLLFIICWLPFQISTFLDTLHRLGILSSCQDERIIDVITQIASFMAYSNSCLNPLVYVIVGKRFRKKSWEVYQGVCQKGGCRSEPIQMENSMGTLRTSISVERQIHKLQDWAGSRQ
The class given is cell membranes, Membrane. Particulars: chem-1.

Assay [5] in a line: DRUGMATRIX: Phorbol Ester radioligand binding (ligand: [3H] PDBu). The class given is cell membranes, Mus musculus, ICR, Brain, Membrane. Particulars: Not Active = under 50% inhibition at 10 µM.
Assay [6] addresses T5, Neuropeptide Y receptor type 2 (Homo sapiens, UniProt P49146).
T5 sequence (P49146 whole entry): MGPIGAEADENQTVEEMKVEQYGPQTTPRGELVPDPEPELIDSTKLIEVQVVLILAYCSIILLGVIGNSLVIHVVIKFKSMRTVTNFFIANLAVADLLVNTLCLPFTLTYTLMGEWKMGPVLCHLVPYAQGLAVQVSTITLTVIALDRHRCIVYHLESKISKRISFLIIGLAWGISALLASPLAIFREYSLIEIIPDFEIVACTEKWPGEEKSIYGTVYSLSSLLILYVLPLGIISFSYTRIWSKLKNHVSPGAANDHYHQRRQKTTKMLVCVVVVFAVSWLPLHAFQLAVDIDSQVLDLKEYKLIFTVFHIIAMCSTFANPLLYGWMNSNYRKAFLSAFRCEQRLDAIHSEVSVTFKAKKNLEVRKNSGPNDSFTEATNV
The class given is cell membranes, Membrane. Particulars: kan-ts.

The next assay addresses Adenosine receptor A2a (Homo sapiens, UniProt P29274). In words: DRUGMATRIX: Adenosine A2A radioligand binding (ligand: […]). In kind it is cell membranes, HEK293, Membrane. The settings on record: hek293; Not Active = under 50% inhibition at 10 µM.

Sequence of Adenosine receptor A2a (P29274 whole entry): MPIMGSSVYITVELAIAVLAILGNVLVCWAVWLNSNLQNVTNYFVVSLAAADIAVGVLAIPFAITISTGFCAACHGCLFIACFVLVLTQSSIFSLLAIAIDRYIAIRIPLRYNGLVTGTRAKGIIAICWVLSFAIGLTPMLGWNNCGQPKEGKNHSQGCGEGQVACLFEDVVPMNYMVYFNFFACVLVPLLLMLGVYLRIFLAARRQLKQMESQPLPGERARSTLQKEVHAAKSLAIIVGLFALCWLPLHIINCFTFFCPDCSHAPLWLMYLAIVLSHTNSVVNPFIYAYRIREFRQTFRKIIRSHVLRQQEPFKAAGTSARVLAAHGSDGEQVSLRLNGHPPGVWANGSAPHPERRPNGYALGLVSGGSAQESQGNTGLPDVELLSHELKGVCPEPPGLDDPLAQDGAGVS

Turning to `CO[C@@H]1[C@@H](OC)[C@H](C)[C@@](O)(CC(=O)O)O[C@H]1[C@H](C)[C@H]1O[C@@]2(CC[C@@](C)([C@H]3CC[C@@](C)([C@@H]4O[C@@H]([C@H]5O[C@](C)(O)[C@H](C)C[C@@H]5C)C[C@@H]4O[C@@H]4C[C@H](OC)[C@@H](OC)[C@H](C)O4)O3)O2)C[C@H](O)[C@H]1C.N` [MADURAMICIN], the half-inhibitory concentration (IC50) entry (at Neutrophil elastase; in assay [1]; in assay [2]; in [3]; in assay [4]; on B2 bradykinin receptor) was “Not Active” each time. Besides, the IC50 entry (in assay [5]; in assay [6]; at Adenosine receptor A2a) was “Not Active” throughout. Besides, the inhibition constant (Ki) result in assay [1], in assay [2] and in [5] was “Not Active” in each case.
For the compound `CC(N)C12CC3CC(CC(C3)C1)C2` (stereo unspecified) [RIMANTADINE], the IC50 result (at Neutrophil elastase; in [1]; in [2]; in assay [3]; in assay [4]; on B2 bradykinin receptor) was “Not Active” throughout. Besides, the IC50 entry (in assay [5]; in [6]; at Adenosine receptor A2a) was “Not Active” in each case. Besides, the Ki entry in [1], in assay [2] and in assay [5] was “Not Active” in each case.
For the compound `CCN(CC)C(=S)SSC(=S)N(CC)CC`, the IC50 result against Neutrophil elastase is “Not Active”; in assay [1], “Not Active”; in assay [2] (read-out: IC50), 16.9 µM; in assay [3] it was “Not Active”; in assay [4] it was “Not Active”; against B2 bradykinin receptor, “Not Active”. Further, the IC50 result (in assay [5]; in assay [6]; at Adenosine receptor A2a) was “Not Active” each time. Besides, the Ki result is “Not Active” in assay [1], 5.79 µM in assay [2] (read-out: Ki) and “Not Active” in assay [5].

One may read the IC50 as the concentration at which inhibition is half-maximal. The Ki is the dissociation constant of the complex between target and ligand, obtained from inhibition or displacement.
